In patent US20040265323A1, “Compositions comprising pathogen elicited epithelial chemoattractant (eicosanoid hepoxilin A3), inhibitors thereof and methods of use thereof” (priority 2003, published 2004):

Experiments:
[1] = tested on: P. aeruginosa-induced PMN transepithelial migration, A549 cells; assay: P. aeruginosa-induced PMN transepithelial migration across A549 cell monolayers; format: cell-based, human; conditions: A549 monolayers, FIG. 5C
Description: (§1) It was further determined whether similar hepoxilin A3 recruitment of PMN by apically attached pathogens might occur at other mucosal surfaces. Pseudomonas aeruginosa is the most prominent bacterial spp. present during chronic infection in cystic fibrosis and chronic obstructive pulmonary disease patients and is accompanied by severe inflammation, including the emigration of PMN to the airway lumen (Pizurki et al., 2000; Jahn et al., 2000; Weiss, S. 1989). As a model for the airway epithelium the A549 cell line was used. This cell line is capable of forming a polarized barrier, and is widely employed as a model for the airway epithelial surface (Smart and Casale, 1994). […] Finally, the secretion of hepoxlin A3 in vitro was quantified using this A549 model system. For these experiments, A549 lung epithelial cells (ATTC) were grown in F12K media (Invitrogen) with 10% FBS, and maintained in culture similar to the T84 cell line. The wild type P. aeruginosa (PAO1) was used for infection of A549 after overnight aerobic growth (Luria broth) at 37° C.

[2] = tested on: hepoxilin A3 secretion; assay: Hepoxilin A3 release from P. aeruginosa infected A549 cell monolayers; format: cell-based, human; conditions: A549 treated with inhibitor prior to P. aeruginosa infection; listed as 12-LO inhibitor
Description: as §1
The apical compartment of A549 cell monolayers treated for 90 minutes with P. aeruginosa had approximately 210 pmoles in the apical compartment and nearly 130 pmoles in the basolateral compartment. […]

[3] = tested on: 12-LO pathway; assay: 12-S-HETE ELISA of lumenal fluid of S. typhimurium-infected xenografts; format: in vivo, human; conditions: S. typhimurium-infected xenografts with baicalein; average of two lumens
Procedure: (§2) Further, the effect of baicalein on S. typhimurium pathology in human intestinal xenografts was determined (Savidge et al., 1995) (FIG. 7). The human fetal intestinal xenograft model used in the present study has been previously described in detail (Savidge et al., 1995). Briefly, human fetal small intestine (n=3, gestational age 10-14weeks) was transplanted subcutaneously into C.B-17 severe-combined immunodeficient (SCID) mice. Xenografts were allowed to develop for a period between 10-20 weeks before use at which time the epithelium and underlying mucosa is fully differentiated (Savidge et al., 1995). Xenografts were infected with approximately 5×10^7 wild type S. typhimurium SL1344 in sterile HBSS(+) buffer in a 100 μl volume injected intralumenally by subcutaneous injection. […]
(§3) It was further confirmed that treatment of the intestinal xenografts with baicalein inhibited the 12-LO pathway by measuring the amount of 12-S-HETE, a major 12-LO metabolite, released into the lumenal fluid. […] Finally, it was determined that there was no statistical difference in the amount IL-8 produced in the S. typhimurium-infected intestinal xenografts in the absence compared to the presence of baicalein treatment (200±53 pg/mg compared to 225±30 pg/mg, respectively, verses 52±11 pg/mg for uninfected control). […]

[4] = tested on: IL-8 production; assay: IL-8 produced in S. typhimurium-infected intestinal xenografts; format: in vivo, human; conditions: S. typhimurium-infected xenografts in the presence of baicalein
Procedure: as §2, §3

For `O=c1cc(-c2ccccc2)oc2cc(O)c(O)c(O)c12` [baicalein], the “P. aeruginosa-induced PMN transepithelial migration with 12-LO inhibitor” value [1] was “inhibited”, the “hepoxilin A3 levels released” value [2] was “no detectable levels of hepoxilin A3” and the “12-S-HETE in lumenal fluid” value [3] was 21.5 ng/mL. It also gave an IL-8 produced [4] of 225 ± 30 pg/mg.
